The results in this text go back to patent US8436012B2, “Imidazopyridin-2-one derivatives” (Daiichi Sankyo Company, Limited, priority 2008, dated 2013).

pIC50: −log10 of the molar value. A value given as a limit tells only on which side of the number the result lay.

One test has as its target T1, human mTOR (Homo sapiens, UniProt P42345).
T1 construct: the portion corresponding to 1362-2549aa at the C terminus of human mTOR; made in house
The test can be described thus: mTOR Kinase Activity Inhibition Test. The test is classed as biochemical. The note with it: His-tagged mTOR (1362C), biotinylated peptide substrate, ATP, 3 hours at room temperature, fluorescence resonance energy transfer 665 nm/620 nm; read-out: IC50 value of mTOR enzyme inhibitory activity. In a few lines: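 Purified His-tagged human mTOR (1362–2549aa, from HEK293) was used with biotinylated peptide (8 μg/mL in enzyme solution) in HEPES pH 7.5 with 20 mM MnCl2. Compounds were diluted in 20 μM ATP solution, and the reaction ran 3 h at RT. Phospho-S6K(Thr389) HTRF was read as the 665/620 nm ratio, and IC50 came from % inhibition versus controls.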

In another test the test system is WM-266-4 cells. The test can be described thus: Cell Proliferation Inhibitory Test. As to conditions: Homo sapiens, 72 h, cultured three days with test compound, MTT, read-out: 50% cell proliferation inhibitory activity (GI50 value). Format: cell-based. In a few lines:
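Cells cultured overnight, then exposed to serially diluted compound for three days; cell amount read by MTT. GI50 solved from 100×[(T−T0)/(C−T0)]=50, with T0 the value at time of compound addition and C the untreated three-day control.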

T1 sequence (P42345 1362-2549): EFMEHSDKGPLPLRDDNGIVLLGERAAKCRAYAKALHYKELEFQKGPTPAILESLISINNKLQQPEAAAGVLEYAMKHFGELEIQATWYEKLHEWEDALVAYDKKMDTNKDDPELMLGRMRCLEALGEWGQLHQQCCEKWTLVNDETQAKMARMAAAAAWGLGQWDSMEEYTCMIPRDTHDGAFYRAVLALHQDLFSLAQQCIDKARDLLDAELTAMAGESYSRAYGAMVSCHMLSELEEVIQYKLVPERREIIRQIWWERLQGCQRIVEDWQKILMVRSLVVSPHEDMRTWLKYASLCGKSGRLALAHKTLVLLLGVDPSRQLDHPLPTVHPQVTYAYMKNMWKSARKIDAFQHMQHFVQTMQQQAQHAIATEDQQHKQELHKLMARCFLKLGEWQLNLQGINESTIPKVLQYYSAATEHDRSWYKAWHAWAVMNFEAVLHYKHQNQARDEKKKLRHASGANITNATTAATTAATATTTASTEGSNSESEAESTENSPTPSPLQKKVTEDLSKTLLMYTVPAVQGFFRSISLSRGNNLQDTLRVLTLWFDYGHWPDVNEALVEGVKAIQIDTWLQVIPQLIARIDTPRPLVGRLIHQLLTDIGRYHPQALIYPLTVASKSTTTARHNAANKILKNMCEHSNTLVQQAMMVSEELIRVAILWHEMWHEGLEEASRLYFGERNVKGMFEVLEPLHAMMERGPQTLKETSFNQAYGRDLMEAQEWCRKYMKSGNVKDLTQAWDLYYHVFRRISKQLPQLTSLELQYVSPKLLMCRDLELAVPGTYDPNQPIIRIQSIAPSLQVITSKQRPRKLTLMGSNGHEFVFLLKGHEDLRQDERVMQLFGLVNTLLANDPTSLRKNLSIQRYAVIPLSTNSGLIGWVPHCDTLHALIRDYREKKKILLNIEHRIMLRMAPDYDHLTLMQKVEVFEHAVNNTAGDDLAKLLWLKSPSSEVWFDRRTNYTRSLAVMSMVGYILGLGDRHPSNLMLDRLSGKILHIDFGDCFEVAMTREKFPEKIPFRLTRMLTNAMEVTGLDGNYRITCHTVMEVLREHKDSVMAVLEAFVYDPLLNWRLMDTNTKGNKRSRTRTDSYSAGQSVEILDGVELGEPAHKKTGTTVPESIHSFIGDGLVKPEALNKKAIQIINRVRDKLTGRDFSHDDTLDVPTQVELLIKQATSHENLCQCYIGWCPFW

The term pIC50 denotes the IC50 on a negative log10 scale, so that one unit is a factor of ten. As for `Cc1nc2[nH]c(=O)n(CC3CCOCC3)c2cc1-c1cnc2[nH]ccc2c1` [Example 17, 5-Methyl-6-(1H-pyrrolo[2,3-b]pyridin-5-yl)-1-(tetrahydro-2H-pyran-4-ylmethyl)-1,3-dihydro-2H-imidazo[4,5-b]pyridin-2-one], the pIC50 at human mTOR was more than 7.30. Also, the GI50 with WM-266-4 cells is less than 3 µM.
Take `CO[C@@H]1CC[C@H](Cn2c(=O)[nH]c3ncc(-c4cnc5[nH]ccc5c4C)cc32)OC1` (racemic) [Example 142, 2,6-Anhydro-1,3,4-trideoxy-5-O-methyl-1-[6-(4-methyl-1H-pyrrolo[2,3-b]pyridin-5-yl)-2-oxo-2,3-dihydro-1H-imidazo[4,5-b]pyridin-1-yl]-DL-threo-hexitol]: on human mTOR, the pIC50 was more than 7.30. Moreover, in the test with WM-266-4 cells, the GI50 is less than 3 µM.
In the case of `Cc1c[nH]c2ncc(-c3cnc4[nH]c(=O)n(C[C@H]5COCCO5)c4c3)cc12` [Example 43, 1-[(2S)-1,4-Dioxan-2-ylmethyl]-6-(3-methyl-1H-pyrrolo[2,3-b]pyridin-5-yl)-1,3-dihydro-imidazo[4,5-b]pyridin-2-one], on human mTOR, the negative logarithm of the IC50 (pIC50) was more than 7.30. The GI50 with WM-266-4 cells is less than 3 µM.
For the molecule `O=c1[nH]c2ncc(-c3cnc4[nH]ccc4c3)cc2n1CC1COCCO1` (stereo not shown) [Example 38, 1-(1,4-Dioxan-2-ylmethyl)-6-(1H-pyrrolo[2,3-b]pyridin-5-yl)-1,3-dihydro-2H-imidazo[4,5-b]pyridin-2-one], the negative logarithm of the IC50 (pIC50) on human mTOR is more than 7.30. The GI50 in the test on WM-266-4 cells was less than 3 µM.
`CS(=O)(=O)N1CCC(Cn2c(=O)[nH]c3ncc(-c4ccc5[nH]ccc5c4)cc32)CC1` [Example 9, 6-(1H-Indol-5-yl)-1-{[1-(methanesulfonyl)piperidin-4-yl]methyl}-1,3-dihydro-2H-imidazo[4,5-b]pyridin-2-one]: the pIC50 at human mTOR is more than 7.30. Further, the GI50 in the test with WM-266-4 cells was less than 3 µM.
For `Cc1nc2[nH]c(=O)n(C[C@H]3COCCO3)c2cc1-c1cnc2[nH]cc(F)c2c1` [Example 119, 1-[(2S)-1,4-Dioxan-2-ylmethyl]-6-(3-fluoro-1H-pyrrolo[2,3-b]pyridin-5-yl)-5-methyl-1,3-dihydro-2H-imidazo[4,5-b]pyridin-2-one], the pIC50 at human mTOR was more than 7.30. Also, the GI50 in the test on WM-266-4 cells was less than 3 µM.
As for `CO[C@@H]1CC[C@H](Cn2c(=O)[nH]c3ncc(-c4cnc5[nH]cc(Cl)c5c4C)cc32)OC1` [Example 148, 2,6-Anhydro-1-[6-(3-chloro-4-methyl-1H-pyrrolo[2,3-b]pyridin-5-yl)-2-oxo-2,3-dihydro-1H-imidazo[4,5-b]pyridin-1-yl]-1,3,4-trideoxy-5-O-methyl-L-threo-hexitol], on human mTOR, the negative logarithm of the IC50 (pIC50) is more than 7.30. In the test on WM-266-4 cells, the GI50 was less than 3 µM.
The matching figures for `Cc1c(-c2cnc3[nH]c(=O)n(C[C@H]4COCCO4)c3c2)cnc2[nH]cc(Cl)c12` [Example 125, 6-(3-Chloro-4-methyl-1H-pyrrolo[2,3-b]pyridin-5-yl)-1-[(2S)-1,4-dioxan-2-ylmethyl]-1,3-dihydro-2H-imidazo[4,5-b]pyridin-2-one]: more than 7.30 and less than 3 µM.
The matching figures for `CN(CCO)c1c(-c2cnc3[nH]c(=O)n(C[C@H]4COCCO4)c3c2)cnc2[nH]ccc12` [Example 132, 1-[(2S)-1,4-Dioxan-2-ylmethyl]-6-{4-[(2-hydroxyethyl)(methyl)amino]-1H-pyrrolo[2,3-b]pyridin-5-yl}-1,3-dihydro-2H-imidazo[4,5-b]pyridin-2-one]: 5.30 to 7.00 and 3 to 25 µM.
As to `CO[C@@H]1CCC[C@@H](Cn2c(=O)[nH]c3ncc(-c4cnc5[nH]ccc5c4)cc32)C1` (racemic) [Example 104, 1-{[trans-3-Methoxycyclohexyl]methyl}-6-(1H-pyrrolo[2,3-b]pyridin-5-yl)-1,3-dihydro-2H-imidazo[4,5-b]pyridin-2-one], at human mTOR, the pIC50 is more than 7.30. Further, in the test on WM-266-4 cells, the GI50 is less than 3 µM.
Take `O=c1[nH]c2ncc(-c3cnc4[nH]ccc4c3)cc2n1C[C@@H]1COC[C@@H]1O` (racemic) [Example 62]: the pIC50 on human mTOR was more than 7.30. Further, in the test on WM-266-4 cells, the GI50 is less than 3 µM.
With `CO[C@H]1COC[C@H]1Cn1c(=O)[nH]c2ncc(-c3cnc4[nH]ccc4c3)cc21` (racemic) [Example 63], at human mTOR, the pIC50 was more than 7.30. Moreover, the GI50 with WM-266-4 cells was less than 3 µM.
As to `CO[C@@H]1CC[C@H](Cn2c(=O)[nH]c3ncc(-c4cnc5[nH]ccc5c4)cc32)OC1` (racemic) [Example 113, 2,6-Anhydro-1,3,4-trideoxy-5-O-methyl-1-[2-oxo-6-(1H-pyrrolo[2,3-b]pyridin-5-yl)-2,3-dihydro-1H-imidazo[4,5-b]pyridin-1-yl]-DL-threo-hexitol], on human mTOR, the negative logarithm of the IC50 (pIC50) is more than 7.30. Also, the GI50 in the test on WM-266-4 cells was less than 3 µM.
On the same counts, the results for `Cc1nc2[nH]ccc2cc1-c1cnc2[nH]c(=O)n(CC3CCOCC3)c2c1` [Example 16, 6-(6-Methyl-1H-pyrrolo[2,3-b]pyridin-5-yl)-1-(tetrahydro-2H-pyran-4-ylmethyl)-1,3-dihydro-2H-imidazo[4,5-b]pyridin-2-one] are more than 7.30 and less than 3 µM.
Take `CO[C@H]1CCO[C@@H](Cn2c(=O)[nH]c3ncc(-c4cnc5[nH]cc(Cl)c5c4C)cc32)C1` [Example 152, 2,6-Anhydro-1-[6-(3-chloro-4-methyl-1H-pyrrolo[2,3-b]pyridin-5-yl)-2-oxo-2,3-dihydro-1H-imidazo[4,5-b]pyridin-1-yl]-1,3,5-trideoxy-4-O-methyl-L-threo-hexitol]: the negative-log IC50 (pIC50) on human mTOR is more than 7.30. Besides, the GI50 with WM-266-4 cells was less than 3 µM.
As for `O=c1[nH]c2ncc(-c3cnc4[nH]ccc4c3)cc2n1CCC1CCOCC1` [Example 20, 6-(1H-Pyrrolo[2,3-b]pyridin-5-yl)-1-[2-(tetrahydro-2H-pyran-4-yl)ethyl]-1,3-dihydro-2H-imidazo[4,5-b]pyridin-2-one], at human mTOR, the negative-log IC50 (pIC50) was more than 7.30. Also, the GI50 in the test on WM-266-4 cells is less than 3 µM.
Consider `CN1CCN(CCn2c(=O)[nH]c3ncc(-c4cnc5[nH]ccc5c4)cc32)CC1` [Example 58, 1-[2-(4-Methylpiperazin-1-yl)ethyl]-6-(1H-pyrrolo[2,3-b]pyridin-5-yl)-1,3-dihydro-2H-imidazo[4,5-b]pyridin-2-one], for which, at human mTOR, the negative-log IC50 (pIC50) was more than 7.30. Moreover, the GI50 with WM-266-4 cells was less than 3 µM.
On to `O=c1[nH]c2nc(Cl)c(-c3cnc4[nH]ccc4c3)cc2n1C[C@H]1COCCO1` [Example 155, 5-Chloro-1-[(2S)-1,4-dioxan-2-ylmethyl]-6-(1H-pyrrolo[2,3-b]pyridin-5-yl)-1,3-dihydro-2H-imidazo[4,5-b]pyridin-2-one], for which, on human mTOR, the pIC50 was more than 7.30. Besides, in the test on WM-266-4 cells, the GI50 is less than 3 µM.
Take `Cc1c(-c2ccc3[nH]ccc3c2)cnc2[nH]c(=O)n(CC3CCOCC3)c12` [Example 8, 6-(1H-Indol-5-yl)-7-methyl-1-(tetrahydro-2H-pyran-4-ylmethyl)-1,3-dihydro-2H-imidazo[4,5-b]pyridin-2-one]: the pIC50 on human mTOR was 5.30 to 7.00. In addition, the GI50 with WM-266-4 cells was in the range of 3 to 25 µM.
`O=c1[nH]c2ncc(-c3cc4cc[nH]c4nn3)cc2n1CC1CCOCC1` [Example 76, 6-(7H-Pyrrolo[2,3-c]pyridazin-3-yl)-1-(tetrahydro-2H-pyran-4-ylmethyl)-1,3-dihydro-2H-imidazo[4,5-b]pyridin-2-one]: the negative logarithm of the IC50 (pIC50) at human mTOR was more than 7.30. In addition, in the test with WM-266-4 cells, the GI50 was 3 to 25 µM.
Take `O=c1[nH]c2ncc(-c3cnc4[nH]ccc4c3)cc2n1CC1CCC(F)(F)CC1` [Example 103, 1-[(4,4-Difluorocyclohexyl)methyl]-6-(1H-pyrrolo[2,3-b]pyridin-5-yl)-1,3-dihydro-2H-imidazo[4,5-b]pyridin-2-one]: the pIC50 on human mTOR is more than 7.30. The GI50 in the test with WM-266-4 cells is less than 3 µM.
Regarding `O=c1[nH]c2ncc(-c3cnc4[nH]cc(Cl)c4c3)cc2n1C[C@H]1CC[C@@H](O)CC1` [Example 116, 6-(3-Chloro-1H-pyrrolo[2,3-b]pyridin-5-yl)-1-[(cis-4-hydroxycyclohexyl)methyl]-1,3-dihydro-2H-imidazo[4,5-b]pyridin-2-one], the negative logarithm of the IC50 (pIC50) at human mTOR was more than 7.30. The GI50 in the test with WM-266-4 cells is less than 3 µM.
On to `CN1C(=O)COC[C@@H]1Cn1c(=O)[nH]c2ncc(-c3cnc4[nH]ccc4c3)cc21` [Example 109, 1-{[(3S)-4-Methyl-5-oxomorpholin-3-yl]methyl}-6-(1H-pyrrolo[2,3-b]pyridin-5-yl)-1,3-dihydro-2H-imidazo[4,5-b]pyridin-2-one], for which, on human mTOR, the negative logarithm of the IC50 (pIC50) is more than 7.30. For the same molecule, in the test on WM-266-4 cells, the GI50 was 3 to 25 µM.
On the same counts, the results for `CO[C@H]1CCO[C@@H](Cn2c(=O)[nH]c3ncc(-c4cnc5[nH]ccc5c4)cc32)C1` (racemic) [Example 114, 2,6-Anhydro-1,3,5-trideoxy-4-O-methyl-1-[2-oxo-6-(1H-pyrrolo[2,3-b]pyridin-5-yl)-2,3-dihydro-1H-imidazo[4,5-b]pyridin-1-yl]-DL-threo-hexitol] are more than 7.30 and less than 3 µM.
The matching figures for `O=c1[nH]c2ncc(-c3cnc4[nH]ccc4c3Cl)cc2n1C[C@H]1COCCO1` [Example 117, 6-(4-Chloro-1H-pyrrolo[2,3-b]pyridin-5-yl)-1-[(2S)-1,4-dioxan-2-ylmethyl]-1,3-dihydro-2H-imidazo[4,5-b]pyridin-2-one]: more than 7.30 and less than 3 µM.
In the case of `O=c1[nH]c2ncc(-c3cnc4[nH]ccc4c3)cc2n1CC1COCCN1` (stereo not shown) [Example 108, 1-(Morpholin-3-ylmethyl)-6-(1H-pyrrolo[2,3-b]pyridin-5-yl)-1,3-dihydro-2H-imidazo[4,5-b]pyridin-2-one], the negative-log IC50 (pIC50) at human mTOR was more than 7.30. The GI50 in the test on WM-266-4 cells is less than 3 µM.
